# Test results published in US20080138838A1, “DIAGNOSIS OF ZD1839 RESISTANT TUMORS” (CEDARS-SINAI MEDICAL CENTER, priority 2002, published 2008).
# System: androgen-independent human cell line CWR22R grown as a xenograft
# Test: ZD1839 resistant xenograft model of human prostate cancer
# Assay type: in vivo
# Protocol: The androgen-independent human cell line CWR22R was grown as a xenograft in nude mice. See Nagabhushan, et al. (1996) Cancer Res. 56:3042-3046; Agus, et al. (1999) J. Nat'l Cancer Inst. 91:1869-1876; and Bubendorf, et al. (1999) J. Nat'l Cancer Inst. 91:1758-1764. […] The mice were treated continuously with sub-therapeutic doses, and the tumors were allowed to grow for 3-4 weeks, before surgical removal of the tumors. The tumor from an individual mouse was then minced, and a small portion was then injected into a healthy nude mouse, establishing a second passage of the tumor. This mouse was then treated continuously with the same sub-therapeutic dose of ZD1839. This process was repeated 10 times, and a portion of each generation of xenograft tumor was collected. […] RNA from each generation of tumor was then isolated, and individual mRNA species were quantified using a custom Affymetrix GENECHIP® (DNA microarray chip) oligonucleotide microarray (Eos Hu03), with probes to interrogate approximately 46,000 unique mRNA transcripts. […] The gene products of the genes listed in Tables 1A-C may be particularly useful as targets in the treatment of ZD1839 resistant tumors derived from prostate cancer, small cell lung cancer, breast cancer, glioblastoma, cervical cancer, colon cancer, head and neck cancer, renal cell carcinoma, and pancreatic cancer. Prostate cancer includes epithelial neoplasms (e.g., adenocarcinoma, small cell tumors, transitional cell carcinoma, carcinoma in situ, and basal cell carcinoma), carcinosarcoma, non-epithelial neoplasms (e.g., mesenchymal and lymphoma), germ cell tumors, prostatic intraepithelial neoplasia (PIN), hormone independent prostate cancer, and metastatic prostate cancer (e.g., to bone, lung, or lymph node).
smiles,measurement,setting,value
COc1cc2ncnc(Nc3ccc(F)c(Cl)c3)c2cc1OCCCN1CCOCC1 [ZD1839],response of xenograft tumors to therapeutic doses of ZD1839,"end of the process (passaging repeated 10 times under continuous sub-therapeutic doses, nude mice)",fully resistant to therapeutic doses
same,response of xenograft tumors to therapeutic doses of ZD1839,initially (parental CWR22R xenograft in nude mice),sensitive to therapeutic doses
same,resistance of xenograft tumors to therapeutic doses of ZD1839,successive passages in nude mice under continuous sub-therapeutic doses,increased with each generation
